Source: patent US20250249025A1, “DRUG DELIVERY CARRIER UTILIZING PROPERTY OF D-ALLOSE BEING UPTAKEN BY CANCER CELL, DRUG DELIVERY METHOD, AND COMPOSITION FOR TREATING RENAL CELL CARCINOMA” (NATIONAL UNIVERSITY CORPORATION KAGAWA UNIVERSITY, priority 2019, published 2025)

Assays:
liver tissue = test: Liver tissue histology in renal cell carcinoma xenograft mouse models; format: in vivo; settings: xenograft mice, intraperitoneal once a day, day 35; diagnosis by a medical specialist in pathology; FIG. 8
Method: (§1) The day when the tumor size of the renal cell carcinoma xenograft mouse models became 200 mm^3 or more was called day 0 and the intraperitoneal injection of a D-allose-containing solution was started from day 1. The solution injected is 0.4 mL of physiological saline or a solution obtained by dissolving 100 mg/kg or 400 mg/kg of D-allose in 0.4 mL physiological saline. The resulting solution was intraperitoneally injected into three groups of mice (Control, 100 mg/kg of D-allose, and 400 mg/kg of D-allose) once a day for 5 weeks in total. The body weight of the mice and the long and short diameters of the tumor were measured over time twice a week. It is to be noted that the tumor volume was obtained as a product of long diameter×short diameter×short diameter of the tumor×0.5. […]
(§2) The tissue of the excised tumor, kidney, and liver was fixed with a 4% paraformaldehyde phosphate buffer, embedded with paraffin, and sliced into a 4-μm thick section. The resulting sliced section was stained with hematoxylin and eosin and evaluated by a medical specialist in pathology. The influence of D-allose on the tumor tissue was evaluated by a necrosis area (%) and an image of the number of nuclear fissions (Cells/HPF). It is to be noted that the necrosis area was measured using an image recording software Nikon NIS—Elements D and figures after the decimal point were omitted. […]

[1] = tested on: human prostate carcinoma cell line Du145; test: Rare sugar uptake experiment, sugar content in disrupted cell suspension of Du145; format: cell-based
Method: (§3) An uptake amount of a rare sugar, which had been added to a medium, into carcinoma cells was analyzed using the cell lines of three types of cancers. As the rare sugar, four kinds, that is, D-allose, D-allulose (D-psicose), L-allulose (L-psicose), and allitol were used, while D-glucose and fructose were used as a monosaccharide which was not a rare sugar.
(§4) Cells of each of the cell lines were cultured in RPMI-1640 media and during culturing, six sugars were each added to the resulting media and cultured. After culturing, an amount of each sugar taken up into the cells was analyzed. The medium to which no sugar was added during culturing was used as a control.
(§5) Used were human bladder carcinoma cell lines (RT112, 253), and J82), human prostatic carcinoma cell lines (LNCa, Du145, and PC-3), and human renal cell carcinoma cell lines (ACHN, Caki-I, and Caki-II).
(§6) After cells were cultured in RPMI-1640 (2000 mg D-glucose/L) media, the above monosaccharides and rare sugars were added to the resulting media, respectively. Described specifically, they were following seven combinations: RPMI-1640 alone (control), RPMI-1640+D-glucose, RPMI-1640+L-allulose, RPMI-1640+D-allulose, RPMI-1640+D-fructose, RPMI-1640+D-allose, and RPMI-1640+D-allitol. The final concentration of the sugar in the medium was adjusted to 10 mM and no sugar was added in the control.
(§7) Five-ml portions of a 3.0×10^4 cells/ml cell suspension prepared using RPMI-1640 were seeded in dishes having a diameter of 6 cm (1.5×10^5 cells/dish) and cultured for 24 hours in the RPMI-1640 medium containing 2000 mg/l of D-glucose as a nutrient source. Twenty-four hours later, the media were changed to the culture solutions containing the monosaccharides and rare sugars described above in 2), respectively, followed by culturing for 48 hours.
(§8) After culturing for 48 hours, the attached human carcinoma cells were mechanically separated and collected in a Spitz tube together with the culture solution and floating cells. After the supernatant formed by centrifugation (4° C., 1200 rpm, and 5 minutes) was removed to obtain cell pellets alone, 5 ml of a phosphate buffer physiological saline (PBS) was added for the purpose of washing to obtain a cell suspension of the cell pellets. A gain, the resulting cell suspension was centrifuged at 4° C. and 1200 rpm for 5 minutes and the supernatant was removed. To the cell pellets after washing was added 1 ml of pure water to suspend them therein. Ultrasonic disruption (intensity: 40%, 30 seconds) was then performed and the monosaccharide in the disrupted cell suspension was labeled with ABEE, followed by analysis by HPLC. From the area thus obtained, the sugar content in the cells was determined using a calibration curve. With respect to the ketose, two peaks were found after labeling with ABEE so that the sugar content in the cells was determined from the calibration curves of both peaks.

[2] = tested on: human bladder carcinoma cell line 253J; test: Rare sugar uptake experiment, sugar content in disrupted cell suspension of 253J; format: cell-based
Method: as §3, §4, §5, §6, §7, §8

kidney tissue = test: Kidney tissue histology in renal cell carcinoma xenograft mouse models; format: in vivo; settings: xenograft mice, intraperitoneal once a day, day 35; diagnosis by a medical specialist in pathology; FIG. 7
Method: as §1, §2

[3] = tested on: human renal cell carcinoma cell line ACHN; test: Rare sugar uptake experiment, sugar content in disrupted cell suspension of ACHN; format: cell-based
Method: as §3, §4, §5, §6, §7, §8

[4] = tested on: human carcinoma cell lines; format: cell-based; settings: 48 h, 10 mM
Method: as §3, §4
Used were human bladder carcinoma cell lines (RT112, 253), and J82), human prostatic carcinoma cell lines (LNCa, Du145, and PC-3), and human renal cell carcinoma cell lines (ACHN, Caki-I, and Caki-II). […]
After culturing for 48 hours, the attached human carcinoma cells were mechanically separated and collected in a Spitz tube together with the culture solution and floating cells. […] From the area thus obtained, the sugar content in the cells was determined using a calibration curve. With respect to the ketose, two peaks were found after labeling with ABEE so that the sugar content in the cells was determined from the calibration curves of both peaks.

## O=C[C@H](O)[C@H](O)[C@H](O)[C@H](O)CO [D-allose]
Liver tissue
  Influence on the liver tissue: No influence
[1]; Du145, named sugar added to RPMI-1640 at 10 mM, 48 hours, HPLC after ABEE labeling
  D-glucose content in cell: 16.2 µg
[1]; human, 48 h, 10 mM
  Content in cell of the added sugar: 0.0 µg
[2]; 253J, named sugar added to RPMI-1640 at 10 mM, 48 hours, HPLC after ABEE labeling
  D-glucose content in cell: 11.5 µg
[2]; human, 48 h, 10 mM
  Content in cell of the added sugar: 0.0 µg
Kidney tissue
  Influence on the kidney tissue: No influence
[3]; ACHN, named sugar added to RPMI-1640 at 10 mM, 48 hours, HPLC after ABEE labeling
  D-glucose content in cell: 1.8 µg
[3]; human, 48 h, 10 mM
  Content in cell of the added sugar: 11.2 µg
[4]
  Uptake into the cells: found only in one (PC-3) of three human prostate carcinoma cell lines
